From patent US20250084079A1, “COMPOSITIONS AND METHODS FOR INHIBITION OF RAS” (TheRas, Inc., priority 2022, published 2025) come the findings set out here.

The structures appear in SMILES notation. Read-outs that look alike come from different tables or passages of the source.

Assay [1] concerns the target T1, Avi-KRAS G12D/Q25A (1-169) GppNHp/3xFLAG-PI3KCA (157-299) (Homo sapiens, UniProt P01116, G12D/Q25A).
T1 construct: 375 nM Avi-KRAS G12D/Q25A (1-169) GppNHp
In words: RAS-effector PPI HTRF disruption assay, PI3KCA-GppNHp-KRAS G12D/Q25A. The assay is classed as biochemical. The procedure: (§1) A protein:protein interaction (PPI) Homogeneous Time Resolved Fluorescence (HTRF) assay was used to determine the effectiveness of compounds of the present disclosure in disrupting KRAS protein and effector (RAF1 or PIK3 CA) binding.
(§2) The HTRF assay used the following reagents and proteins: (i) 375 nM Avi-KRAS G12D/Q25A (1-169) GppNHp/3×FLAG-PI3KCA (157-299); (ii) 100 nM Avi-KRAS G12D (1-169) GppNHp/RAF1 RBD-3×FLAG (52-151); (iii) 50 nM Avi-KRAS G12V (1-169) GppNHp/RAF1 RBD-3×FLAG (52-151); (iv) 50 nM Avi-KRAS WT (1-169) GppNHp/RAF1 RBD-3×FLAG (52-151); and (v) 35 nM Avi-PI3K RBD CA-3×FLAG; Assay Buffer: 50 mM Tris pH 7.5, 100 mM NaCl, 5 mM MgCl2, 0.1% BSA, 0.01% Tween, 1 mM TCEP, 10% DMSO; Bead Buffer: 50 mM Tris pH 7.5, 0.01% Tween 20; Assay volume: 20 μL (384 well plate-low volume format); and Compound titration: 100-0.02 μM, 3× dilution series.
(§3) The HTRF assay employed the following protocol:
(§4) Compounds were dispensed in assay plate (384-well, Grenier Bione #784075) using Echo (model 555) with dose response settings: 200 nL final volume, titration from 100 μM as a 10-point dilution series. Protein mix was prepared in assay buffer, and dispensed on plates, 10 μL per well, then incubated for 1 h at room temperature, with 700 rpm shaking. Reagents mix was prepared and dispensed on plates, 10 μL per well, then incubated for 1 h at room temperature, with 700 rpm shaking.
(§5) Plates were analyzed on an Envision plate reader using the following setting: Excitation 320 nm, Bandwidth […]; Emission 615 nm, Bandwidth […], Gain 100%, Flashes 100, Lag 60 μs. Data was reported as percentage of activity, with DMSO as 100%. Data was plotted and analyzed using Prism 8. The SPR Kd, biochemical Raf1-KRAS G12D/G12V/WT-GppNHP and PI3KCA-KRAS G12D/Q25A-GppNHp disruption assay IC50 of selected compounds described herein are shown in Table 4.

In assay [2] the target is T2, Avi-KRAS G12V (1-169) GppNHp/RAF1 RBD-3xFLAG (52-151) (Homo sapiens, UniProt P01116, G12V).
T2 construct: 50 nM Avi-KRAS G12V (1-169) GppNHp
T2 sequence (P01116 1-169 isoform P01116-2 G12V): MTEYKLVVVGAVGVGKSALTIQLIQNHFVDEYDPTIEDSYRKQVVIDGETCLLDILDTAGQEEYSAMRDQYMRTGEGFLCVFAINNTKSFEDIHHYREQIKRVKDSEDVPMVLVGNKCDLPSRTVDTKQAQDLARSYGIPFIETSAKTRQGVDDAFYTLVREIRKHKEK
The assay is described as follows: RAS-effector PPI HTRF disruption assay, Raf1-GppNHp-KRAS G12V. The assay is classed as biochemical. The method, then:
as §1, §2, §3, §4, §5

Assay [3] addresses T3, Avi-KRAS G12D (1-169) GppNHp/RAF1 RBD-3xFLAG (52-151) (Homo sapiens, UniProt P01116, G12D).
T3 construct: 100 nM Avi-KRAS G12D (1-169) GppNHp
In words: RAS-effector PPI HTRF disruption assay, Raf1-GppNHp-KRAS G12D. The assay is classed as biochemical. The procedure:
as §1, §2, §3, §4, §5
Background: TR-FRET usually uses a lanthanide donor and a delayed reading to cut background.

Assay [4] has as its target T4, Avi-KRAS WT (1-169) GppNHp/RAF1 RBD-3xFLAG (52-151) (Homo sapiens, UniProt P01116).
T4 construct: 50 nM Avi-KRAS WT (1-169) GppNHp
In words: RAS-effector PPI HTRF disruption assay, Raf1-GppNHp-KRAS WT. The assay is classed as biochemical. The method, then:
as §1, §2, §3, §4, §5

The test system of assay [5] is pERK in GP2d cells (KRAS G12D). The assay is described as follows: Cell-based pERK HTRF assay in GP2d cell. The note with it: 60 min incubation. The procedure:
A pERK assay (Perkin Elmer) was used to determine the effectiveness of compounds in disrupting KRAS G12D protein/effector signaling in cells.
On Day 1, cells (GP2d) were seeded into 96-well plates at 3×10^4 cells/well in 80 μL complete growth media (DMEM, 10% FBS).
On Day 2, cells were treated with compounds at 0.25% DMSO. The source plate was created with compounds diluted in media at 5-fold the final assay concentration. The compounds were run in a 9-point concentration curve starting at 1 μM, with a half-log dilution between concentrations. 20 μL was transferred onto the cell plates (final volume in wells was 100 μL). Plates were harvested after 60 min incubation by aspirating media and adding kit-supplied 1× supplemented lysis buffer to all wells (50 μL per well). Plates were then placed on a plate shaker and incubated at 850 rpm for an additional 30 min.
Antibody mixture solution is prepared by diluting aliquoted d2 and Eu Cryptate antibodies 1:20 in kit supplied detection buffer, mix the diluted antibodies solutions (1:1 v:v). 4 μL of this solution is then added to a 384-well detection plate (Perkin Elmer; 6008230).
Samples were homogenized by pipetting up and down and then transferred (16 μL of cell lysates) from the 96-well cell culture plate to two wells of the HTRF 384-well detection plate containing the antibody solution. Plates were centrifuged (524 g for 1 min) and allowed to incubate between 4 and 24 h at room temperature. Maximum signal is reached after 4 h incubation time and remains stable over a period of 24 hours. Therefore, readings can be made between 4 and 24 h of incubation. Plates were centrifuged again (524 g for Imin), then analyzed on the EnVision plate reader using the following settings: Excitation 320 nm, Bandwidth 75 nm; Emission 615 nm, Bandwidth 85 nm; Gain 100%; Flashes 100; Lag 60 μs.

T4 sequence (P01116 1-169 isoform P01116-2): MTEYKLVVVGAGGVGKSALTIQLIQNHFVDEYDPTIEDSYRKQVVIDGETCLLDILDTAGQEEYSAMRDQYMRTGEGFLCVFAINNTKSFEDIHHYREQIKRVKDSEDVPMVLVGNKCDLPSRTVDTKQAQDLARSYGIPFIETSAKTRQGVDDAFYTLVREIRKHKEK
T1 sequence (P01116 1-169 isoform P01116-2 G12D/Q25A): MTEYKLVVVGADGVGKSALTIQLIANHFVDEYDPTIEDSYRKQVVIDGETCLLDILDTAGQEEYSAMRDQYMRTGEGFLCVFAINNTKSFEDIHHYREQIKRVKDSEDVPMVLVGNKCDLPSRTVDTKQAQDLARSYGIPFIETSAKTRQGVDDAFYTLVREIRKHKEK
T3 sequence (P01116 1-169 isoform P01116-2 G12D): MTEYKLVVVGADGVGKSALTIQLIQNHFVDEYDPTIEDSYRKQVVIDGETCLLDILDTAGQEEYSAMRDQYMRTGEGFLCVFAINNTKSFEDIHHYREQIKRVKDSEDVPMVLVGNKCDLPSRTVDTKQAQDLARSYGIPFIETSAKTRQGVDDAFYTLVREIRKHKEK

`Nc1nc2c(-c3c(C(F)(F)F)cc4c(O[C@@H]5CCNC5)nc(OC[C@@]56CCCN5C[C@H](F)C6)nc4c3F)ccc(F)c2s1` (atropisomer, axis not shown) [Compound 4]: the IC50 in assay [1] was 0.1 to 1 µM; in assay [2], 1 to 10 µM; in assay [3], 0.1 to 1 µM; in assay [4], 1 to 10 µM.
For the molecule `Nc1nc2c(-c3c(C(F)(F)F)cc4c(O[C@@H]5CCNC5)nc(OC[C@@]56CCCN5C[C@H](F)C6)nc4c3F)ccc(F)c2s1` (atropisomer, axis not shown) [Compound 5], the IC50 in assay [1], in assay [2], in assay [3] and in assay [4] was > 10 µM each time.
For the molecule `Nc1nc2c(-c3c(C(F)(F)F)cc4c(O[C@H]5C[C@H]6CC[C@@H](C5)N6)nc(OCC56CCCN5CCC6)nc4c3F)ccc(F)c2s1` (atropisomer, axis not shown) [Compound 6], the IC50 is 1 to 10 µM in assay [1], > 10 µM in assay [2], 1 to 10 µM in assay [3] and 1 to 10 µM in assay [4].
Turning to `C[C@@H]1NCC[C@H]1Oc1nc(OC[C@@]23CCCN2C[C@H](F)C3)nc2c(F)c(-c3ccc(F)c4sc(N)nc34)c(C(F)(F)F)cc12` (atropisomer, axis not shown) [Compound 8], the IC50 in assay [1] lay within 0.1 to 1 µM; in assay [2] it was 1 to 10 µM; in assay [3], 0.1 to 1 µM; in assay [5] (GP2d, 1 h) it was 0.1 to 1 µM; in assay [4], 1 to 10 µM.
For `C[C@@H]1NCC[C@H]1Oc1nc(OC[C@@]23CCCN2C[C@H](F)C3)nc2c(F)c(-c3ccc(F)c4sc(N)nc34)c(C(F)(F)F)cc12` (atropisomer, axis not shown) [Compound 9], the IC50 in assay [1], in assay [2], in assay [3] and in assay [4] was > 10 µM each time.
As to `Nc1nc2c(-c3c(C(F)(F)F)cc4c(O[C@@H]5CCNC5)nc(OC[C@@]56CCCN5C[C@H](F)C6)nc4c3Cl)ccc(F)c2s1` (atropisomer, axis not shown) [Compound 10], the IC50 was 0.1 to 1 µM in assay [1]; 1 to 10 µM in assay [2]; 0.1 to 1 µM in assay [3]; 0.1 to 1 µM in assay [5] (read-out: pERK-Gp2D-1 hr); 1 to 10 µM in assay [4].
Consider `Nc1nc2c(-c3c(C(F)(F)F)cc4c(O[C@@H]5CCNC5)nc(OC[C@@]56CCCN5C[C@H](F)C6)nc4c3Cl)ccc(F)c2s1` (atropisomer, axis not shown) [Compound 11], for which the IC50 in assay [1] was > 10 µM; in assay [2] it was > 10 µM; in assay [3] it was > 10 µM; in assay [5] (read-out: pERK-Gp2D-1 hr), > 1 µM; in assay [4], > 10 µM.
As to `Nc1nc2c(-c3c(C(F)(F)F)cc4c(O[C@H]5CNCC5(F)F)nc(OC[C@@]56CCCN5C[C@H](F)C6)nc4c3F)ccc(F)c2s1` (atropisomer, axis not shown) [Compound 29], the IC50 in assay [1] was > 10 µM; in assay [2] it was > 10 µM; in assay [3], > 10 µM; in assay [5] (read-out: pERK-Gp2D-1 hr), > 1 µM; in assay [4], > 10 µM.
On to `C[C@H]1CNCC1Oc1nc(OC[C@@]23CCCN2C[C@H](F)C3)nc2c(F)c(-c3ccc(F)c4sc(N)nc34)c(C(F)(F)F)cc12` (some centres unmarked) [Compound 2], for which the IC50 in assay [1] is 1 to 10 µM; in assay [2], > 10 µM; in assay [3], 1 to 10 µM; in assay [4], 1 to 10 µM.
Turning to `Nc1nc2c(-c3c(C(F)(F)F)cc4c(O[C@H]5CNC[C@H]5F)nc(OC[C@@]56CCCN5C[C@H](F)C6)nc4c3F)ccc(F)c2s1` [Compound 22, 7-fluoro-4-(8-fluoro-4-(((3S,4R)-4-fluoropyrrolidin-3-yl)oxy)-2-(((2R,7aS)-2-fluorotetrahydro-1H-pyrrolizin-7a(5H)-yl)methoxy)-6-(trifluoromethyl)quinazolin-7-yl)benzo[d]thiazol-2-amine], the IC50 in assay [1] is 1 to 10 µM; in assay [2] it was > 10 µM; in assay [3], > 10 µM; in assay [4], 1 to 10 µM.
